Values belong to the molecule of their own block, whether it stands above or below them.
How the values were obtained:
Assay type in all cases: physicochemical
[1] = Solid-state polymorphic transformation in laboratory stress study samples (DSC); details: 40° C., 70-day time-point
Protocol: Two Bimatoprost lots (X11192 and X10510) were subjected to a variety of experimental stress conditions at 40° C. (see Table 6). The experimental design included ambient air and argon headspaces, exposure to fluorescent light, and different surface-to-volume ratios. The 70-day time-point samples were analyzed by HPLC and DSC.

[2] = Solid-state polymorphic transformation in samples of the formal stability program (DSC, IR); details: stored 18 months at 25° C./60% RH
Protocol: The colored particle was separated from the white drug substance, and DSC was performed on both. In order to determine whether bimatoprost spontaneously converts from polymorph I to polymorph II at elevated temperatures (i.e. higher than the prescribed storage temperature), a number of other lots in the formal stability program were also analyzed by DSC. All the formal stability samples tested consisted of polymorph II. Since the control (frozen) samples from the same lots were previously analyzed by DSC with the results showing that none of them contained polymorph II, there is a clear indication that a polymorphic transformation had occurred under the stability conditions employed.

[3] = Determination of the aqueous solubility of polymorph II; details: 0.4% suspension rotated continuously over a weekend; supernatants assayed by HPLC
Protocol: The aqueous solubility of polymorph II was determined by preparing in duplicate a 0.4% suspension of a formal stability sample (lot X10510 stored at 25° C./60% RH for 23 months, confirmed as polymorph II). Temperature Program 1 (hold for 1.0 minute at 30° C. and then heat from 30° C. to 85° C. at 2.0° C. per minute), was used to test the 23-month stability sample by DSC to reconfirm the presence of only polymorph II (which was, indeed, the case). The suspension was allowed to rotate continuously over a weekend. The supernatants were assayed by HPLC using X11192 Secondary Reference Standard to determine the drug contents. […] Since the active pharmaceutical ingredient will be used in a formulation at a concentration that is only one-tenth of the aqueous solubility of the active pharmaceutical ingredient (as either polymorph), there is no effect of crystal habit on product characteristics or manufacturing process.

SMILES: CCNC(=O)CCC/C=C\C[C@@H]1[C@@H](/C=C/[C@@H](O)CCc2ccccc2)[C@H](O)C[C@@H]1O [X10510, bimatoprost]
polymorphic form after stress (DSC) ([1]; ambient air headspace, regardless of light exposure): partial morphological conversion in which both polymorphs I and II were present simultaneously | polymorphic form after storage (DSC and IR) [2]: yielded substantial amounts of polymorph II

polymorphic form after stress (DSC) ([1]; air or argon headspace, light or dark): polymorph I
SMILES: CCNC(=O)CCC/C=C\C[C@@H]1[C@@H](/C=C/[C@@H](O)CCc2ccccc2)[C@H](O)C[C@@H]1O [X11192, bimatoprost]

aqueous solubility [3]: 0.3 % w/w
SMILES: CCNC(=O)CCCC=CCC1C(O)CC(O)C1C=CC(O)CCc1ccccc1 (stereo not shown) [polymorph II, 7-[3,5-dihydroxy-2-(3-hydroxy-5-phenyl-pent-1-enyl)-cyclopentyl]-N-ethyl-hept-5-enamide]
